According to PMC8667945, “Structure-based virtual screening and biological evaluation of novel small-molecule BTK inhibitors” (Journal of Enzyme Inhibition and Medicinal Chemistry, 2021):

Assays:
[1] = target: T1, Bruton tyrosine kinase (BTK) (Homo sapiens, UniProt Q06187); test: Z'LYTE biochemical kinase inhibition assay, dose response
[2] = target: T1, Bruton tyrosine kinase (BTK); test: Z'LYTE biochemical kinase inhibition assay, single dose (% inhibition at […])

T1 sequence (Q06187 2-659): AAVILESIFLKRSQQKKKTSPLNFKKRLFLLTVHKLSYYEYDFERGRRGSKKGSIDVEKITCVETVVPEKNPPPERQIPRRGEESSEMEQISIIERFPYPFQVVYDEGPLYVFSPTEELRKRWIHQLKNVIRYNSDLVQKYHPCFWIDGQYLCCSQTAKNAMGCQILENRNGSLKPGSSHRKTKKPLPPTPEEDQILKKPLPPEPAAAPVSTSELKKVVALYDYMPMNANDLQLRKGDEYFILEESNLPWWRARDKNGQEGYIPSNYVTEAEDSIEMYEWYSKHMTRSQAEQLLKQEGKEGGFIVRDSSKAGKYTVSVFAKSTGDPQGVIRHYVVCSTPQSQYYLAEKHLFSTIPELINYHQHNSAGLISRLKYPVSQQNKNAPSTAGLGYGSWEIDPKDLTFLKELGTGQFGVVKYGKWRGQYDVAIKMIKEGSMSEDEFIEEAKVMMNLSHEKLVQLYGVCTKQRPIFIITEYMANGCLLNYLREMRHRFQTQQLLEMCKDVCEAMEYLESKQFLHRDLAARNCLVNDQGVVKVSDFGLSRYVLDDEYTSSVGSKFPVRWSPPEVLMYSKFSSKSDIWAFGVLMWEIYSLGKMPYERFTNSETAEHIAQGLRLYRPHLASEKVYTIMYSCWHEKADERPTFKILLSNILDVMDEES

Structure (SMILES) | IC50 [1] [nM] | inhibition at 10 µM [2] [%]
N#CCc1n[nH]c2nc(SCc3ccccc3)nc(Nc3nnc(S)s3)c12 [NSC724520] | 2100 | 
C(=Nc1nc(N2CCOCC2)nc2[nH]ncc12)c1ccco1 [NSC725686] | 840 | 
COc1ccc(/C=N/Nc2nc(SCc3ccccc3)nc3[nH]ncc23)cc1OC [NSC726558] |  | 59

Further lines, with some results ahead:

IC50 [1] [nM] | Structure (SMILES) | inhibition at 10 µM [2] [%]
1600 | O=C(Sc1nc(SC(=O)c2ccccc2)c2cn[nH]c2n1)c1ccccc1 [NSC722944] | 
5000 | C(=Nc1nc(NCc2ccccc2)nc2[nH]ncc12)c1cccs1 [NSC726593] | 
